Test results as given in patent US8802639B2, “RNA interference modulators of hedgehog signaling and uses thereof” (Curis, Inc., priority 2004, dated 2014).
Blank lines part the entries; values can stand above or below the compound they belong to. {P} = phosphate

Key:
[1] = tested on: Sp-C expression in embryonic mouse lungs; experiment: Sp-C (surfactant type C) expression in embryonic mouse lung explants (Q-RT-PCR); format: cell-based; settings: embryonic lung cultures (FIG. 10, FIG. 11)
Method: Surfactant production is a measure of lung maturity, and the inability to produce surfactant is the primary cause of adult and infant respiratory distress syndrome. The increase in surfactant type C production was assessed by measuring expression of Sp-C, which encodes a protein critical for the production of surfactant.
METHODS: E13.5 old embryonic mouse lungs were dissected. Explants were grown submerged in lung explant medium (DMEM based, additives optimized for the culture of mouse lungs) for 50 hrs. They were then processed for Q-RT-PCR. Briefly, total ribonucleic acid (RNA) is isolated from the tissue and subjected to reverse transcription to generate DNA. This DNA is amplified in a polymerase chain reaction using gene-specific primers as well as primers for the ubiquitously expressed housekeeping gene GAPDH. The two primer sets are labeled with different fluorophores, allowing for quantification of both signals in the same reaction tube in a real-time PCR machine (TaqMan). When calculating the expression level of Sp-C, the specific signal is normalized to the GAPDH signal, which serves as a measure of the total DNA used in the reaction.
Steroids are known to increase lung maturation and surfactant production in animals, including humans.

[2] = tested on: human Shh; experiment: siRNA inhibition of Shh expression in transfected HEK-293 cells (immunostaining); format: cell-based; settings: for inhibition of Shh expression: 0.4 μg phShh plasmid + 20, 100 or 500 pmole siRNA, about 68 hours, anti-Shh staining (FIG. 2)
Method: To test the effectiveness of the three siRNA antagonists, a confluent plate of HEK-293 cells were splited 1:3 and plated onto a 24-well tissue culture plate. The final density of cells was about 14,000 cells/well. Lipofectamine infection was carried out according to manufacturer's instruction. Specifically, 0.4 μg phShh^FL (a human Shh-encoding plasmid “pcDNA3.1-hShh”) and either 0, 20, 100, or 500 pmole of each annealed Shh siRNA antagonist were mixed in 25 μL of serum-free DMEM (no Pen./Strep.) with 4 μL of “Plus Reagent” for 15 minutes. At the same time, 1 μL of Lipofectamine was mixed in 25 μL of serum-free DMEM (no Pen./Strep.) with 4 μL of “Plus Reagent” for 15 minutes. At the end of the incubation, the two mixtures were combined to form complexes for 15 minutes. For each well of HEK-293 cells, the medium was changed to 200 μL of serum-free DMEM (no Pen./Strp.), and the formed complexes were then added to the respective test wells. After 3 hours of incubation at 37° C. in a 5% CO2 tissue culture incubator, 250 μL of DMEM (no Pen./Strep.) with 20% FBS were added to each well. The plate of cells were then returned to the incubator. After about 68 hours of incubation, cells in each well were fixed in 4% PFA/PAS, and stained with 1:200 dilution of rabbit anti-Shh antibody and Cy3-labeled anti-rabbit secondary antibody. […] Therefore, #1 siRNA was used for future experiments.
(§1) Next, the specificity of the inhibitory effects #1 Shh siRNA antagonist was tested against two other related Hh proteins, Ihh and Dhh. Specifically, the same HEK-293 cells were splited and seeded to a final density of about 14,000 cells/well in a 24-well tissue culture plate. The same Lipofectamine transfection as described above were carried out for each of the following combinations: • 0.4 μg of pcDNA3.1-hShh+0, 50, or 250 pmoles of siRNA #1; • 0.4 μg of pcDNA3.1-hIhh+0, 50, or 250 pmoles of siRNA #1; • 0.4 μg of pcDNA3.1-hDhh+0, 50, or 250 pmoles of siRNA #1; and, • 0.4 μg of pcDNA3.1-hShh+250 pmoles of siRNA #1 reverse strand only control.
(§2) After 2 hours of incubation with each of the complexes, the medium in each transfection well was replaced with 1 mL of fresh DMEM (no Pen./Strep.)+10% FBS, for the purpose of getting healthier cells at the end of the experiment. After 2 more days of incubation, all cells were fixed as described above, and stained with H-160 pan-Hh rabbit polyclonal antibody (Cat. No. sc-9024, Santa Cruz Biotechnology, CA) and Cy3-labeled anti-rabbit secondary antibody.

[3] = tested on: Ihh (pcDNA3.1-hIhh); experiment: siRNA specificity test, Ihh expression in transfected HEK-293 cells; format: cell-based, human; settings: pcDNA3.1-hIhh + 50 or 250 pmoles siRNA (FIG. 3)
Method: as §1, §2

[4] = tested on: Dhh (pcDNA3.1-hDhh); experiment: siRNA specificity test, Dhh expression in transfected HEK-293 cells; format: cell-based, human; settings: pcDNA3.1-hDhh + 50 or 250 pmoles siRNA (FIG. 3)
Method: as §1, §2

[5] = target: Sonic hedgehog (Shh), functional hedgehog protein secreted by human cancer cell lines (human) (UniProt Q15465); experiment: cell-based or functional assay
Chain of UniProt Q15465 (Q15465 24-197 limits assumed): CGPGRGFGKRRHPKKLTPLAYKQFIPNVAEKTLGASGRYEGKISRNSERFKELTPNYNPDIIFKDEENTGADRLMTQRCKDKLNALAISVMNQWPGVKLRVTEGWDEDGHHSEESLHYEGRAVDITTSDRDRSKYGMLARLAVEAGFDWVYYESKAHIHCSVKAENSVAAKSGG

Compound: C[C@]12CCC(=O)C=C1CC[C@@H]1[C@@H]2[C@@H](O)C[C@@]2(C)[C@H]1CC[C@]2(O)C(=O)CO [hydrocortisone]
Sp-C expression [1]: increase in Sp-C expression

Compound: siRNA #1: siRNA duplex against human Shh; sense 5′-P cga gau guc ugc ugc uag ucc (SEQ ID NO: 5), antisense SEQ ID NO: 6 (sense CGAGAUGUCUGCUGCUAGUCC; antisense ACUAGCAGCAGACAUCUCGCC; RNA, 5' {P}, backbone not given here)
inhibition of Shh expression [2]: nearly completely inhibits Shh expression
specificity for Shh as compared to Ihh and Dhh ([2]; 50 or 250 pmoles siRNA (FIG. 3)): very specific for Shh
inhibition of expression of human Shh ([2]; pcDNA3.1-hShh + 50 pmoles siRNA, H-160 pan-Hh staining (FIG. 3)): almost completely inhibited expression of human Shh
inhibition of Ihh expression [3]: did not obviously inhibit Ihh or Dhh expression
inhibition of Dhh expression [4]: did not obviously inhibit Ihh or Dhh expression

inhibition of luciferase expression in S12 cells (gli-Luc assay, S12/RT-4 co-cultures), IC50 [5]: 0.085 µg/mL
inhibition of luciferase expression in S12 cells (gli-Luc assay, S12/RT-4 co-cultures), IC90 [5]: 0.5 µg/mL
Compound: Shh blocking antibody (5E1)

Compound: siRNA #5: siRNA duplex against human Shh; sense 5′-P cgg uca agu cca gcu gaa gcc (SEQ ID NO: 9), antisense SEQ ID NO: 10 (sense CGGUCAAGUCCAGCUGAAGCC; antisense CUUCAGCUGGACUUGACCGCC; RNA, 5' {P}, backbone not given here)
inhibition of Shh expression [2]: slightly less effective than #1

Compound: siRNA #4: siRNA duplex against human Shh; sense 5′-P cag agu agc ccu aac cgc ucc (SEQ ID NO: 7), antisense SEQ ID NO: 8 (sense CAGAGUAGCCCUAACCGCUCC; antisense AGCGGUUAGGGCUACUCUGCC; RNA, 5' {P}, backbone not given here)
inhibition of Shh expression [2]: less pronounced
